Results taken from patent US8569302B2, “Inhibitors of flaviviridae viruses” (Gilead Sciences, Inc., priority 2009, dated 2013).

System: human hepatoma Huh-7 cell line harboring a HCV replicon
Experiment: HCV replicon assay (inhibition of viral replication, luciferase readout)
Format: cell-based
Conditions: Hepatitis C virus, 72 h, Huh-7 HCV replicon cells, 3 days incubation
In short: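 Read-outs: luciferase luminescence for replication inhibition, corrected by ITMN-191 (100% inhibition) wells, and calcein AM fluorescence for cytotoxicity. Cells were treated for 3 days at 37 °C with ten 3-fold compound dilutions in 0.44% final DMSO. Percent inhibition relative to DMSO was fitted with a Hill equation to give EC50 and CC50.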

**Q.** Which inhibition at 2 µM does the source give for `CN(C)C1CCN(C(=O)c2ccnc(O[C@H]3CC[C@H](N(c4cc(C#CC(C)(C)C)sc4C(=O)O)C(=O)[C@H]4CC[C@H](C)CC4)CC3)c2)C1` (stereo partly drawn) [Compound 169, Sodium 3-(N-(4-(4-(3-(dimethylamino)pyrrolidine-1-carbonyl)pyridin-2-yloxy)cyclohexyl)-4-methylcyclohexanecarboxamido)-5-(3,3-dimethylbut-1-ynyl)thiophene-2-carboxylate] here?
**A.** 100%

**Q.** How did the inhibition at 2 µM turn out when `CC(C)(C)C#Cc1cc(N(C(=O)[C@H]2CC[C@H](C)CC2)[C@H]2CC[C@H](Oc3ccc(CN4CCCC4=O)cn3)CC2)c(C(=O)O)s1` [Compound 170, Sodium 5-(3,3-dimethylbut-1-ynyl)-3-(4-methyl-N-(4-(5-((2-oxopyrrolidin-1-yl)methyl)pyridin-2-yloxy)cyclohexyl)cyclohexanecarboxamido)thiophene-2-carboxylate] was run?
**A.** 99.9%

**Q.** For `CC(C)(C)C#Cc1cc(N(C(=O)[C@H]2CC[C@H](C)CC2)[C@@H]2CCC(Oc3ccccn3)C(CN3CCCC3)C2)c(C(=O)O)s1` (stereo partly drawn) [Compound 171, Sodium 5-(3,3-dimethylbut-1-ynyl)-3-(4-methyl-N-((1R)-4-(pyridin-2-yloxy)-3-(pyrrolidin-1-ylmethyl)cyclohexyl)cyclohexanecarboxamido)thiophene-2-carboxylate], which inhibition at 2 µM is on record?
**A.** 99.7%

**Q.** For `Cn1nc(O[C@H]2CC[C@@H](N(c3cc(C#CC(C)(C)C)sc3C(=O)O)C(=O)[C@H]3CC[C@H](C)CC3)CC2)ccc1=O` [Compound 173, Sodium 5-(3,3-dimethylbut-1-ynyl)-3-(4-methyl-N-(4-(1-methyl-6-oxo-1,6-dihydropyridazin-3-yloxy)cyclohexyl)cyclohexanecarboxamido)thiophene-2-carboxylate], which inhibition at 2 µM is on record?
**A.** 100%

**Q.** How did the inhibition at 2 µM turn out when `Cn1nc(O[C@H]2CC[C@H](N(c3cc(C#CC(C)(C)C)sc3C(=O)O)C(=O)[C@H]3CC[C@H](C)CC3)CC2)ccc1=O` [Compound 174, 5-(3,3-Dimethylbut-1-ynyl)-3-(4-methyl-N-(4-(1-methyl-6-oxo-1,6-dihydropyridazin-3-yloxy)cyclohexyl)cyclohexanecarboxamido)thiophene-2-carboxylic acid] was run?
**A.** 100%

**Q.** `CN(C)Cc1ccnc(O[C@H]2CC[C@@H](N(c3cc(C#CC(C)(C)C)sc3C(=O)O)C(=O)[C@H]3CC[C@H](C)CC3)CC2)c1` [Compound 175, Sodium 3-(N-(4-(4-((dimethylamino)methyl)pyridin-2-yloxy)cyclohexyl)-4-methylcyclohexanecarboxamido)-5-(3,3-dimethylbut-1-ynyl)thiophene-2-carboxylate] was tested. Which inhibition at 2 µM did it give?
**A.** 100%

**Q.** How did the inhibition at 2 µM turn out when `CC(C)(C)C#Cc1cc(N(C(=O)[C@H]2CC[C@H](C)CC2)[C@H]2CC[C@H](Oc3ccc4nccn4n3)CC2)c(C(=O)O)s1` [Compound 176, Sodium 5-(3,3-dimethylbut-1-ynyl)-3-(N-(4-(imidazo[1,2-b]pyridazin-6-yloxy)cyclohexyl)-4-methylcyclohexanecarboxamido)thiophene-2-carboxylate] was run?
**A.** 99.8%

**Q.** How did the inhibition at 2 µM turn out when `CC(C)(C)C#Cc1cc(N(C(=O)[C@H]2CC[C@H](C)CC2)[C@H]2CC[C@@H](Oc3ccc(Cl)nn3)CC2)c(C(=O)O)s1` [Compound 177, 3-(N-(4-(6-Chloropyridazin-3-yloxy)cyclohexyl)-4-methylcyclohexanecarboxamido)-5-(3,3-dimethylbut-1-ynyl)thiophene-2-carboxylic acid] was run?
**A.** 99.6%

**Q.** How did the inhibition at 2 µM turn out when `CC(C)(C)C#Cc1cc(N(C(=O)[C@H]2CC[C@H](C)CC2)[C@H]2CC[C@@H](Oc3ccc(O)nn3)CC2)c(C(=O)O)s1` [Compound 178, 5-(3,3-Dimethylbut-1-ynyl)-3-(N-(4-(6-hydroxypyridazin-3-yloxy)cyclohexyl)-4-methylcyclohexanecarboxamido)thiophene-2-carboxylic acid] was run?
**A.** 100%

**Q.** With `CC(C)(C)C#Cc1cc(N(C(=O)[C@H]2CC[C@H](C)CC2)[C@H]2CC[C@@H](Oc3cncnc3)CC2)c(C(=O)O)s1` [Compound 179, 5-(3,3-Dimethylbut-1-ynyl)-3-(4-methyl-N-(4-(pyrimidin-5-yloxy)cyclohexyl)cyclohexanecarboxamido)thiophene-2-carboxylic acid] as the molecule, how does the inhibition at 2 µM read?
**A.** 99.5%

**Q.** Which inhibition at 2 µM does the source give for `CC(C)(C)C#Cc1cc(N(C(=O)[C@H]2CC[C@H](C)CC2)[C@H]2CC[C@@H](Oc3cccnc3)CC2)c(C(=O)O)s1` [Compound 180, 5-(3,3-Dimethylbut-1-ynyl)-3-(4-methyl-N-(4-(pyridin-3-yloxy)cyclohexyl)cyclohexanecarboxamido)thiophene-2-carboxylic acid] here?
**A.** 99.6%

**Q.** With `CC(C)(C)C#Cc1cc(N(C(=O)[C@H]2CC[C@H](C)CC2)[C@H]2CC[C@@H](Oc3ncccn3)CC2)c(C(=O)O)s1` [Compound 181, 5-(3,3-Dimethylbut-1-ynyl)-3-(4-methyl-N-(4-(pyrimidin-2-yloxy)cyclohexyl)cyclohexanecarboxamido)thiophene-2-carboxylic acid] as the molecule, how does the inhibition at 2 µM read?
**A.** 98.3%

**Q.** `CC(C)(C)C#Cc1cc(N(C(=O)[C@H]2CC[C@H](C)CC2)[C@H]2CC[C@@H](Oc3cnc(Cl)cn3)CC2)c(C(=O)O)s1` [Compound 182, 3-(N-(4-(5-Chloropyrazin-2-yloxy)cyclohexyl)-4-methylcyclohexanecarboxamido)-5-(3,3-dimethylbut-1-ynyl)thiophene-2-carboxylic acid] was tested. Which inhibition at 2 µM did it give?
**A.** 99%

**Q.** `CC(C)(C)C#Cc1cc(N(C(=O)[C@H]2CC[C@H](C)CC2)[C@H]2CC[C@@H](Oc3ccnnc3)CC2)c(C(=O)O)s1` [Compound 183, 5-(3,3-Dimethylbut-1-ynyl)-3-(4-methyl-N-(4-(pyridazin-4-yloxy)cyclohexyl)cyclohexanecarboxamido)thiophene-2-carboxylic acid] was tested. Which inhibition at 2 µM did it give?
**A.** 100%

**Q.** How did the inhibition at 2 µM turn out when `CC(C)(C)C#Cc1cc(N(C(=O)[C@H]2CC[C@H](C)CC2)[C@H]2CC[C@H](Oc3cnc(Cl)cn3)CC2)c(C(=O)O)s1` [Compound 184, 3-(N-(4-(5-Chloropyrazin-2-yloxy)cyclohexyl)-4-methylcyclohexanecarboxamido)-5-(3,3-dimethylbut-1-ynyl)thiophene-2-carboxylic acid] was run?
**A.** 97.8%

**Q.** With `CC(C)(C)C#Cc1cc(N(C(=O)[C@H]2CC[C@H](C)CC2)[C@H]2CC[C@H](Oc3ccnnc3)CC2)c(C(=O)O)s1` [Compound 185, 5-(3,3-Dimethylbut-1-ynyl)-3-(4-methyl-N-(4-(pyridazin-4-yloxy)cyclohexyl)cyclohexanecarboxamido)thiophene-2-carboxylic acid] as the molecule, how does the inhibition at 2 µM read?
**A.** 84.7%

**Q.** How did the inhibition at 2 µM turn out when `CC1CCC(C(=O)N(c2cc(C#CC(C)(C)C)sc2C(=O)O)C2CCC(Oc3cccc(CN4CCCC4)n3)CC2)CC1` (stereo not drawn) [Compound 187, 3-[[-4-(6-pyrrolidin-1-ylmethyl-pyridin-2-yloxy)-cyclohexyl]-(4-methyl-cyclohexanecarbonyl)-amino]-5-(3,3-Dimethyl-but-1-ynyl)-thiophene-2-carboxylic acid] was run?
**A.** 100%

**Q.** How did the inhibition at 2 µM turn out when `CC1CCC(C(=O)N(c2cc(C#CC(C)(C)C)sc2C(=O)O)[C@H]2CC[C@H](Oc3cccc(CN4CCOCC4)n3)CC2)CC1` (stereo partly drawn) [Compound 188, 3-[[-4-(6-morpholin-1-ylmethyl-pyridin-2-yloxy)-cyclohexyl]-(4-methyl-cyclohexanecarbonyl)-amino]-5-(3,3-Dimethyl-but-1-ynyl)-thiophene-2-carboxylic acid] was run?
**A.** 100%

**Q.** How did the inhibition at 2 µM turn out when `CC1CCC(C(=O)N(c2cc(C#CC(C)(C)C)sc2C(=O)O)[C@H]2CC[C@H](Oc3cc(CN4CCCC4=O)ccn3)CC2)CC1` (stereo partly drawn) [Compound 189, 3-[[-4-(4-pyrrolidin-2-one-1-ylmethyl-pyridin-2-yloxy)-cyclohexyl]-(4-methyl-cyclohexanecarbonyl)-amino]-5-(3,3-Dimethyl-but-1-ynyl)-thiophene-2-carboxylic acid] was run?
**A.** 99.9%

**Q.** How did the inhibition at 2 µM turn out when `CC1CCC(C(=O)N(c2cc(C#CC(C)(C)C)sc2C(=O)O)[C@H]2CC[C@H](Oc3cc(CN4CCC(O)C4)ccn3)CC2)CC1` (stereo partly drawn) [Compound 190, 3-[[-4-[4-(3-hydroxy-pyrrolidin-1-ylmethyl)-pyridin-2-yloxy]-cyclohexyl]-(4-methyl-cyclohexanecarbonyl)-amino]-5-(3,3-Dimethyl-but-1-ynyl)-thiophene-2-carboxylic acid] was run?
**A.** 100%

**Q.** Which inhibition at 2 µM does the source give for `CC1CCC(C(=O)N(c2cc(C#CC(C)(C)C)sc2C(=O)O)[C@H]2CC[C@H](Oc3cc(CN(C)CCO)ccn3)CC2)CC1` (stereo partly drawn) [Compound 191, 3-[[-4-[4-{[(2-hydroxy-ethyl)-methyl-amino]-1-ylmethyl}-pyridin-2-yloxy]-cyclohexyl]-(4-methyl-cyclohexanecarbonyl)-amino]-5-(3,3-Dimethyl-but-1-ynyl)-thiophene-2-carboxylic acid] here?
**A.** 100%

**Q.** How did the inhibition at 2 µM turn out when `CC1CCC(C(=O)N(c2cc(C#CC(C)(C)C)sc2C(=O)O)[C@H]2CC[C@H](Oc3cncc(CN(C)C)c3)CC2)CC1` (stereo partly drawn) [Compound 192, 3-[[-4-(5-dimethylaminomethyl-pyridin-3-yloxy)-cyclohexyl]-(4-methyl-cyclohexanecarbonyl)-amino]-5-(3,3-dimethyl-but-1-ynyl)-thiophene-2-carboxylic acid] was run?
**A.** 100%

**Q.** With `CC1CCC(C(=O)N(c2cc(C#CC(C)(C)C)sc2C(=O)O)[C@H]2CC[C@H](Oc3cncc(CN4CCCC4)c3)CC2)CC1` (stereo partly drawn) [Compound 193, 3-[[-4-(5-pyrrolidin-1-ylmethyl-pyridin-3-yloxy)-cyclohexyl]-(4-methyl-cyclohexanecarbonyl)-amino]-5-(3,3-dimethyl-but-1-ynyl)-thiophene-2-carboxylic acid] as the molecule, how does the inhibition at 2 µM read?
**A.** 100%

**Q.** `CC1CCC(C(=O)N(c2cc(C#CC(C)(C)C)sc2C(=O)O)[C@H]2CC[C@H](Oc3cncc(CN4CCOCC4)c3)CC2)CC1` (stereo partly drawn) [Compound 194, 3-[[4-(5-morpholin-4-ylmethyl-pyridin-3-yloxy)-cyclohexyl]-(4-methyl-cyclohexanecarbonyl)-amino]-5-(3,3-dimethyl-but-1-ynyl)-thiophene-2-carboxylic acid] was tested. Which inhibition at 2 µM did it give?
**A.** 99.9%
